Square brackets hold non-standard residues; d marks the D form. Peptide text beside a SMILES is read from it. ξ: configuration not given here. Aoe(9ξ) = N[C@@H](CCCCCC(=O)C1CO1)C(=O)O; dPip = O=C(O)[C@H]1CCCCN1

In assay [1] the test system is H1299 cells. Nature of the assay: Additional microarray analysis of RhoA, RhoB, RhoC expression in TPX-treated H1299 cells. The assay is classed as cell-based, human. The conditions noted are these: H1299 cells treated with 30 nm TPX. Here is the method: Microarray analysis is performed essentially as described in Welsh, J. B. Cancer Res. 61 5974-8 (2001). Poly (A)+ RNA is prepared from H1299 cells treated with TPX or DMSO for 0, 6, and 24 h. RNA is also prepared from 136 transformed cell lines. Labelled cDNA is prepared and hybridized to HU6800 or U95a oligonucleotide arrays (Affymetrix, Santa Clara, Calif.). The arrays are scanned on an Affymetrix confocal scanner and analyzed with GENECHIP 3.1 software (Affymetrix). T-test of the results is done.

The next assay relates to RhoB promoter. Kind of assay: RhoB promoter luciferase reporter assay in transfected H1299 cells treated with TPX.
The subject of the next assay is RhoB. Nature of the assay: Western/immunoblot detection of RhoB protein in TPX-treated H1299 cells. The note with it: 30 nM. The assay is classed as cell-based, human. Here is the method:
Detection of p21^waf1 and RhoB protein induction in response to trapoxin A treatment. […] Whole lysates are prepared in triple detergent lysis buffer (50 mM Tris, pH 8, 150 mM NaCl, 0.02% NaN3, 0.1% SDS, 1% Nonidet P-40, 0.5% sodium deoxycholate, 100 μg/ml phenylmethylsulfonyl fluoride, 1 μg/ml aprotinin) and proteins are separated by SDS-polyacrylamide electrophoresis, electrophoretically transferred to nitrocellulose membranes, and incubated with anti-p21^waf1 (BD Pharmingen, San Jose, Calif.) or anti-RhoB (Santa Cruz Biotechnologies, Santa Cruz Calif.). Immunoreactive proteins are visualized using ECL chemiluminescence system (Amersham Pharmacia Biotech., Piscataway, N.J.).
H1299 non-small lung carcinoma cells are treated with 30 nM trapoxin A or 0.1% dimethysulphoxide or untreated for 0, 8, 24 and 48 h for RhoB. Whole lysates are prepared in triple detergent lysis buffer (50 mM Tris, pH 8, 150 mM NaCl, 0.02% NaN3, 0.1% SDS, 1% Nonidet P-40, 0.5% sodium deoxycholate, 100 μg/ml phenylmethylsulfonyl fluoride, 1 μg/ml aprotinin) and proteins are separated by SDS-polyacrylamide electrophoresis, electrophoretically transferred to nitrocellulose membranes, and incubated with anti-RhoB (Santa Cruz Biotechnologies, Santa Cruz Calif.). Immunoreactive proteins are visualized using ECL chemiluminescence system (Amersham Pharmacia Biotech., Piscataway, N.J.). […]
On the technique in general: A western blot detects proteins with antibodies after separation by electrophoresis.

In assay [2] the test system is H1299 cells. Nature of the assay: Northern blot analysis of transcripts in TPX-treated H1299 cells. It is filed as cell-based, human. Here is the method: Northern Blotting. […] RNA is separated by electrophoresis on denaturing agarose gels and transferred to nylon membranes. Membranes are hybridized with random hexanucleotide-primed ^32P-labeled DNA fragments that are prepared from the RhoB gene, using standard protocols.
A subset of genes on Incyte cDNA arrays that were differentially expressed in response to HDAC inhibition by TPX treatment were analyzed using Northern blot analyses to confirm that the level of these transcripts changed in response to HDAC inhibition. Total RNA that was isolated from TPX-treated H1299 cells for 0, 6 and 18 h was hybridized with probes that were prepared from sequences of 8 differentially expressed transcripts, including G9 sialidase, IPP isomerase, p21^waf1, Interferon γ-inducible IP-30 (GILT), Hsp 70, urokinase plasminogen activator receptor, and KIAA0797. Although there were differences in the absolute changes in transcript levels that were determined by Northern analysis versus the arrays, the directional trend in the differential expression in response to TPX was confirmed for all of the genes tested.
[…] RNA is separated by electrophoresis on denaturing agarose gels and transferred to nylon membranes. […]
Total RNA is isolated from H1299 cells treated for 6 h with 30 nM TPX or DMSO using Trizol reagent (Life Technologies). The RNA samples are analyzed by Northern blots using conventional methods. […]

Consider `O=C(CCCCC[C@@H]1NC(=O)[C@H]2CCCCN2C(=O)[C@H](Cc2ccccc2)NC(=O)[C@H](Cc2ccccc2)NC1=O)C1CO1` (stereo partly drawn) [TPX, Trapoxin A] (cyclo(FF[dPip][Aoe(9ξ)])), for which, in the assay on H1299 cells [1], the “Expression of RhoA (additional microarray analysis)” value is given as “unchanged”, the “Expression of RhoC (additional microarray analysis)” value is listed as “unchanged” and the “RhoB upregulation (additional microarray analysis)” value is recorded as “approximately 8 fold”. In addition, the “Induction of luciferase activity driven by the RhoB promoter” value with RhoB promoter (30 nM TPX 24 h, normalized to DMSO) was “about 10 fold”. In addition, the “Effect of insertion of three nucleotides (AAA) between CCAAT and TATA boxes on TPX induction” value in the assay on RhoB promoter (30 nM TPX vs 0.1% DMSO, 24 h) was “no effect”. In addition, in the assay on RhoB promoter (all constructs generated), the “Induction of RhoB promoter 5′ deletion constructs (luciferase activity)” value was “induced by TPX to a similar extent”. Further, in the assay on RhoB, the “RhoB protein level (Western analysis)” value is given as “up-regulated”. The “RhoB mRNA level (Northern analysis)” value in the assay with H1299 cells [2] (30 nM, 6 h) was “up-regulated”. Moreover, the “Directional trend in differential expression vs arrays (Northern; G9 sialidase, IPP isomerase, p21waf1, IP-30, Hsp 70, UpaR, KIAA0797)” value with H1299 cells [2] (TPX 0, 6 and 18 h) is “confirmed”.

(Values after patent US20060040884A1, “Antisense oligonucleotides directed to genes regulated by trapoxin-induced HDAC inhibition” (priority 2001, published 2006).)
